ChEMBL document CHEMBL5724914, “Linking interpersonal differences in gut microbiota composition and drug biotransformation activity” (2024)

experiment: (§1) The drug is tested on Z-006 corresponding to mouse gut metagenome with ENA study accession number: PRJEB37062 and ENA sample accession number: ERS12561806 for biotransformation under anaerobic condition. The drug concentrations were measured over 9 timepoints collected between 0 and 24 hours of incubation by liquid-chromatography-coupled mass spectrometry (LC–MS); conditions: 2 µM
Also: call rule not given here.

Row | Structure (SMILES) | Bacterial Biotransformation
1 | CN/C(=N/CCSCc1nc[nH]c1C)NC#N [CIMETIDINE] | Compound NOT metabolized
2 | CCN(CC)CCOCCOC(=O)C1(c2ccccc2)CCCC1.O=C(O)CC(O)(CC(=O)O)C(=O)O [CARBETAPENTANE CITRATE] | Compound NOT metabolized

experiment: as §1, with “Z-025” for “Z-006”, “rabbit” for “mouse”, “ERS12561824” for “ERS12561806”; conditions: 2 µM

Row | Structure (SMILES) | Bacterial Biotransformation
3 | CN/C(=N/CCSCc1nc[nH]c1C)NC#N [CIMETIDINE] | Compound NOT metabolized
4 | CCN(CC)CCOCCOC(=O)C1(c2ccccc2)CCCC1.O=C(O)CC(O)(CC(=O)O)C(=O)O [CARBETAPENTANE CITRATE] | Compound NOT metabolized

experiment: as §1, with “WLS-039” for “Z-006”, “human” for “mouse”, “ERS12561746” for “ERS12561806”; conditions: 2 µM

Row | Structure (SMILES) | Bacterial Biotransformation
5 | CN/C(=N/CCSCc1nc[nH]c1C)NC#N [CIMETIDINE] | Compound NOT metabolized
6 | CCN(CC)CCOCCOC(=O)C1(c2ccccc2)CCCC1.O=C(O)CC(O)(CC(=O)O)C(=O)O [CARBETAPENTANE CITRATE] | Compound metabolized

conditions: human gut metagenome, 24 h, 2 µM

Row | Structure (SMILES) | Bacterial Biotransformation
7 | CN/C(=N/CCSCc1nc[nH]c1C)NC#N [CIMETIDINE] | Compound NOT metabolized
8 | CCN(CC)CCOCCOC(=O)C1(c2ccccc2)CCCC1.O=C(O)CC(O)(CC(=O)O)C(=O)O [CARBETAPENTANE CITRATE] | Compound metabolized

conditions: human gut metagenome, 24 h, 2 µM; remark: another data set of the same source

Row | Structure (SMILES) | Bacterial Biotransformation
9 | CN/C(=N/CCSCc1nc[nH]c1C)NC#N [CIMETIDINE] | Compound metabolized
10 | CCN(CC)CCOCCOC(=O)C1(c2ccccc2)CCCC1.O=C(O)CC(O)(CC(=O)O)C(=O)O [CARBETAPENTANE CITRATE] | Compound metabolized

conditions: human gut metagenome, 24 h, 2 µM; remark: another data set of the same source

Row | Structure (SMILES) | Bacterial Biotransformation
11 | CN/C(=N/CCSCc1nc[nH]c1C)NC#N [CIMETIDINE] | Compound metabolized
12 | CCN(CC)CCOCCOC(=O)C1(c2ccccc2)CCCC1.O=C(O)CC(O)(CC(=O)O)C(=O)O [CARBETAPENTANE CITRATE] | Compound metabolized

experiment: as §1, with “WLS-010” for “Z-006”, “human” for “mouse”, “ERS12561743” for “ERS12561806”; conditions: 2 µM

Row | Structure (SMILES) | Bacterial Biotransformation
13 | CN/C(=N/CCSCc1nc[nH]c1C)NC#N [CIMETIDINE] | Compound metabolized
14 | CCN(CC)CCOCCOC(=O)C1(c2ccccc2)CCCC1.O=C(O)CC(O)(CC(=O)O)C(=O)O [CARBETAPENTANE CITRATE] | Compound metabolized

experiment: as §1, with “Z-022” for “Z-006”, “ERS12561821” for “ERS12561806”; conditions: 2 µM

Row | Structure (SMILES) | Bacterial Biotransformation
15 | CN/C(=N/CCSCc1nc[nH]c1C)NC#N [CIMETIDINE] | Compound NOT metabolized
16 | CCN(CC)CCOCCOC(=O)C1(c2ccccc2)CCCC1.O=C(O)CC(O)(CC(=O)O)C(=O)O [CARBETAPENTANE CITRATE] | Compound metabolized

conditions: human gut metagenome, 24 h, 2 µM; remark: another data set of the same source

Row | Structure (SMILES) | Bacterial Biotransformation
17 | CN/C(=N/CCSCc1nc[nH]c1C)NC#N [CIMETIDINE] | Compound NOT metabolized
18 | CCN(CC)CCOCCOC(=O)C1(c2ccccc2)CCCC1.O=C(O)CC(O)(CC(=O)O)C(=O)O [CARBETAPENTANE CITRATE] | Compound NOT metabolized

experiment: as §1, with “WLS-098” for “Z-006”, “human” for “mouse”, “ERS12561754” for “ERS12561806”; conditions: 2 µM

Row | Structure (SMILES) | Bacterial Biotransformation
19 | CN/C(=N/CCSCc1nc[nH]c1C)NC#N [CIMETIDINE] | Compound metabolized
20 | CCN(CC)CCOCCOC(=O)C1(c2ccccc2)CCCC1.O=C(O)CC(O)(CC(=O)O)C(=O)O [CARBETAPENTANE CITRATE] | Compound metabolized

experiment: as §1, with “WLS-052” for “Z-006”, “human” for “mouse”, “ERS12561747” for “ERS12561806”; conditions: 2 µM

Row | Structure (SMILES) | Bacterial Biotransformation
21 | CN/C(=N/CCSCc1nc[nH]c1C)NC#N [CIMETIDINE] | Compound NOT metabolized
22 | CCN(CC)CCOCCOC(=O)C1(c2ccccc2)CCCC1.O=C(O)CC(O)(CC(=O)O)C(=O)O [CARBETAPENTANE CITRATE] | Compound metabolized

experiment: as §1, with “Z-011” for “Z-006”, “ERS12561811” for “ERS12561806”; conditions: 2 µM

Row | Structure (SMILES) | Bacterial Biotransformation
23 | CN/C(=N/CCSCc1nc[nH]c1C)NC#N [CIMETIDINE] | Compound NOT metabolized
24 | CCN(CC)CCOCCOC(=O)C1(c2ccccc2)CCCC1.O=C(O)CC(O)(CC(=O)O)C(=O)O [CARBETAPENTANE CITRATE] | Compound NOT metabolized

conditions: human gut metagenome, 24 h, 2 µM; remark: another data set of the same source

Row | Structure (SMILES) | Bacterial Biotransformation
25 | CN/C(=N/CCSCc1nc[nH]c1C)NC#N [CIMETIDINE] | Compound NOT metabolized
26 | CCN(CC)CCOCCOC(=O)C1(c2ccccc2)CCCC1.O=C(O)CC(O)(CC(=O)O)C(=O)O [CARBETAPENTANE CITRATE] | Compound metabolized

experiment: as §1, with “Z-021” for “Z-006”, “to” for “to mouse gut”, “ERS12561820” for “ERS12561806”; conditions: 2 µM

Row | Structure (SMILES) | Bacterial Biotransformation
27 | CN/C(=N/CCSCc1nc[nH]c1C)NC#N [CIMETIDINE] | Compound NOT metabolized
28 | CCN(CC)CCOCCOC(=O)C1(c2ccccc2)CCCC1.O=C(O)CC(O)(CC(=O)O)C(=O)O [CARBETAPENTANE CITRATE] | Compound metabolized

experiment: as §1, with “WLS-027” for “Z-006”, “human” for “mouse”, “ERS12561744” for “ERS12561806”; conditions: 2 µM

Row | Structure (SMILES) | Bacterial Biotransformation
29 | CN/C(=N/CCSCc1nc[nH]c1C)NC#N [CIMETIDINE] | Compound metabolized
30 | CCN(CC)CCOCCOC(=O)C1(c2ccccc2)CCCC1.O=C(O)CC(O)(CC(=O)O)C(=O)O [CARBETAPENTANE CITRATE] | Compound metabolized

experiment: as §1, with “Z-023” for “Z-006”, “to” for “to mouse gut”, “ERS12561822” for “ERS12561806”; conditions: 2 µM

Row | Structure (SMILES) | Bacterial Biotransformation
31 | CN/C(=N/CCSCc1nc[nH]c1C)NC#N [CIMETIDINE] | Compound NOT metabolized
32 | CCN(CC)CCOCCOC(=O)C1(c2ccccc2)CCCC1.O=C(O)CC(O)(CC(=O)O)C(=O)O [CARBETAPENTANE CITRATE] | Compound NOT metabolized

conditions: human gut metagenome, 24 h, 2 µM; remark: another data set of the same source

Row | Structure (SMILES) | Bacterial Biotransformation
33 | CN/C(=N/CCSCc1nc[nH]c1C)NC#N [CIMETIDINE] | Compound NOT metabolized
34 | CCN(CC)CCOCCOC(=O)C1(c2ccccc2)CCCC1.O=C(O)CC(O)(CC(=O)O)C(=O)O [CARBETAPENTANE CITRATE] | Compound NOT metabolized

conditions: human gut metagenome, 24 h, 2 µM; remark: another data set of the same source

Row | Structure (SMILES) | Bacterial Biotransformation
35 | CN/C(=N/CCSCc1nc[nH]c1C)NC#N [CIMETIDINE] | Compound metabolized
36 | CCN(CC)CCOCCOC(=O)C1(c2ccccc2)CCCC1.O=C(O)CC(O)(CC(=O)O)C(=O)O [CARBETAPENTANE CITRATE] | Compound metabolized

conditions: human gut metagenome, 24 h, 2 µM; remark: another data set of the same source

Row | Structure (SMILES) | Bacterial Biotransformation
37 | CN/C(=N/CCSCc1nc[nH]c1C)NC#N [CIMETIDINE] | Compound NOT metabolized
38 | CCN(CC)CCOCCOC(=O)C1(c2ccccc2)CCCC1.O=C(O)CC(O)(CC(=O)O)C(=O)O [CARBETAPENTANE CITRATE] | Compound NOT metabolized

conditions: human gut metagenome, 24 h, 2 µM; remark: another data set of the same source

Row | Structure (SMILES) | Bacterial Biotransformation
39 | CN/C(=N/CCSCc1nc[nH]c1C)NC#N [CIMETIDINE] | Compound metabolized
40 | CCN(CC)CCOCCOC(=O)C1(c2ccccc2)CCCC1.O=C(O)CC(O)(CC(=O)O)C(=O)O [CARBETAPENTANE CITRATE] | Compound metabolized
